{"source": "patent US6776996B2", "about": "“Pesticidal matrices” (priority 1997, dated 2004)", "test_system": "H. virescens", "experiment": "Field evaluation against tobacco budworms on tobacco in North Carolina", "format": "in vivo", "conditions": "0.75 lb of ai/acre", "experimental": "A field evaluation is conducted on tobacco grown near Clayton, N.C. A wettable powder composition of this invention (composition 46) at 2×10^11, 5×10^11, and 8×10^11 bodies/acre, Bacillus thuringiensis (DIPEL® 2X, Abbott Laboratories) at 1.0 lb wettable powder (WP)/acre, and acephate (ORTHENE® 75SP, available from Valent USA, Walnut Creek, Calif.) at 0.75 lb active ingredient (ai)/acre are compared for efficacy against H. virescens. Biological materials are suspended in water containing an insect gustatory stimulant (PHEAST® available from […], Fresno, Calif.); aqueous dilutions of acephate contained no PHEAST®. Treatments and untreated check are replicated four times (small plots) in a randomized complete block design. By using fine-hair brushes, 1- to 2-day old laboratory-reared H. virescens are placed on the underside of leaves in each plot. Natural infestation of H. virescens also occurred at the test site. Treatments are applied to tobacco about 2 hours before each artificial larval infestation on days 1 and 8. Treatments are applied with a tractor-mounted, CO2-pressurized boom sprayer which is calibrated to deliver 25 gallons/acre through a single D2-33 nozzle centered over each tobacco row. Boom pressure during application is 60 lb/in^2.\nAt 2 and 5 days after first application and 5 and 9 days after second application, live H. virescens are counted on 20 plants in each plot. Additionally, visual estimate of leaf damage caused by larval feeding is made 14 days after the second application using the rating scale shown below.", "data": [{"smiles": "COP(=O)(NC(C)=O)SC", "note": "(centres unmarked) [Acephate, acephate]", "values": [{"measurement": "Mean Number of Live Larvae per 20 Plants", "setting": "Day of Test 3", "value": 6.0}, {"measurement": "Mean Number of Live Larvae per 20 Plants", "setting": "Day of Test 8", "value": 5.8}, {"measurement": "Mean Number of Live Larvae per 20 Plants", "setting": "Day of Test 13", "value": 1.2}, {"measurement": "Mean Number of Live Larvae per 20 Plants", "setting": "Day of Test 17", "value": 0.8}, {"measurement": "Mean Plant Injury on Day 22 of Test", "setting": "rating scale 0 (No Damage) to 4 (Severe Damage)", "value": 0.2}]}]}
